Target: T1, ΔF508-CFTR (Homo sapiens, UniProt P13569, DEL508-508)
T1 construct: expressed in transfected cells
Assay: Membrane potential optical assay (FRET voltage-sensor dyes, VIPR), identification of potentiator compounds
Assay type: cell-based
Settings: Table 3; assay not given; read-out: % Activity (% Efficacy, relative efficacy)
Summary of the method: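 Potentiator screen measured membrane potential via FRET between CC2-DMPE donor and DiSBAC2(3), read on VIPR II. Compound went in with the first addition of chloride-free gluconate bath; cells were ΔF508-CFTR-expressing NIH3T3 mouse fibroblasts, temperature-corrected at 27 °C for 24 h.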

T1 sequence (P13569 with tags, fused parts or gaps DEL508-508): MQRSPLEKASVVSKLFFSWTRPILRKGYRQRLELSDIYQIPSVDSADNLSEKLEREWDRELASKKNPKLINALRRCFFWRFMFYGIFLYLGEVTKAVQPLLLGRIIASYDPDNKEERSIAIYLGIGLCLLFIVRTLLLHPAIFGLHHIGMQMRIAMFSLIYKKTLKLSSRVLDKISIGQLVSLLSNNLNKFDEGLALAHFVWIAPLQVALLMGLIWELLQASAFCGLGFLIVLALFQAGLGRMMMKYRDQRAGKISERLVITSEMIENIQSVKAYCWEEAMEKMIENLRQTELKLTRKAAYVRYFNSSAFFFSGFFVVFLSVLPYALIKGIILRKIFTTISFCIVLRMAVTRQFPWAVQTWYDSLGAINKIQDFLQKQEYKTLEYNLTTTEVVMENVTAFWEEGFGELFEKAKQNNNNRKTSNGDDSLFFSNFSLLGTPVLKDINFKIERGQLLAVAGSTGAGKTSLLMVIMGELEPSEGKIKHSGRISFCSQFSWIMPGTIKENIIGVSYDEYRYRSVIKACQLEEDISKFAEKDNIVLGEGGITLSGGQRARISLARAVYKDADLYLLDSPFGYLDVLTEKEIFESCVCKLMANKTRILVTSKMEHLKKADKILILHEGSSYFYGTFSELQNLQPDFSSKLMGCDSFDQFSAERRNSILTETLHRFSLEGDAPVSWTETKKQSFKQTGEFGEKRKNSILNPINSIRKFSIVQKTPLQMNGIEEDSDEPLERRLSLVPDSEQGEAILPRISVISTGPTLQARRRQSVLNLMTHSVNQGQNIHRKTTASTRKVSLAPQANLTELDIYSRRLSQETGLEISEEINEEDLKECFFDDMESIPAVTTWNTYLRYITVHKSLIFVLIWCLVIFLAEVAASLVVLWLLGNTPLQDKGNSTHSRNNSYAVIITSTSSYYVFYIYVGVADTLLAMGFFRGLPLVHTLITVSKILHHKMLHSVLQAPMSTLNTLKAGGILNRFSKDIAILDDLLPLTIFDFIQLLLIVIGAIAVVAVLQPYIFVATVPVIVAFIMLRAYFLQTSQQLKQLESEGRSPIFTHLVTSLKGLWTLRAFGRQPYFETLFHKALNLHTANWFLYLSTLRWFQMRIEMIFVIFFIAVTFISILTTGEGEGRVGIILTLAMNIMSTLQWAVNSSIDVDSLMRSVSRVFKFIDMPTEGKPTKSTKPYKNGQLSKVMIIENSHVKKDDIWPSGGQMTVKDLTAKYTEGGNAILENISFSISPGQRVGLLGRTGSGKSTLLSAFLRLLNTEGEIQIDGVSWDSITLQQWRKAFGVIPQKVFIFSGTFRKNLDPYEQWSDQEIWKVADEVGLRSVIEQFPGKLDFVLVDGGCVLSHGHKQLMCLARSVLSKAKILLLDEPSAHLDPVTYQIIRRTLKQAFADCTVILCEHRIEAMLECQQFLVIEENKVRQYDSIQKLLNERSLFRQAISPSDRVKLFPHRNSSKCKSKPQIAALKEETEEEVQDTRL

Row | SMILES | Emax [%]
1 | CC1(c2ccc(NC(=O)c3c[nH]c4cccc(O)c4c3=O)cc2O)CCCCC1 [Compound 606, 5-hydroxy-N-[3-hydroxy-4-(1-methylcyclohexyl)-phenyl]-4-oxo-1H-quinoline-3-carboxamide] | < 25
2 | Cc1ccc2c(=O)c(C(=O)Nc3ccc(N4CCC[C@@H]4C)cc3C(F)(F)F)c[nH]c2c1 [Compound 607, (S)-7-methyl-N-(4-(2-methylpyrrolidin-1-yl)-2-(trifluoromethyl)phenyl)-4-oxo-1,4-dihydroquinoline-3-carboxamide] | 25 to 100
3 | O=C(Nc1cc(O)c(Cl)cc1Cl)c1c[nH]c2ccccc2c1=O [Compound 608, N-(2,4-dichloro-5-hydroxy-phenyl)-4-oxo-1H-quinoline-3-carboxamide] | 25 to 100
4 | CC(C)(C)c1ccc(O)cc1NC(=O)c1c[nH]c2cccc(O)c2c1=O [Compound 609, 5-hydroxy-N-(5-hydroxy-2-tert-butyl-phenyl)-4-oxo-1H-quinoline-3-carboxamide] | 25 to 100
5 | CC(C)(C)c1cc(F)c(NC(=O)c2c[nH]c3cccc(F)c3c2=O)cc1O [Compound 610, 5-fluoro-N-(2-fluoro-5-hydroxy-4-tert-butyl-phenyl)-4-oxo-1H-quinoline-3-carboxamide] | 25 to 100
6 | COc1cc2c(=O)c(C(=O)Nc3cc4[nH]ccc4cc3C(C)(C)C)c[nH]c2cc1F [Compound 611, 7-fluoro-6-methoxy-4-oxo-N-(5-tert-butyl-1H-indol-6-yl)-1H-quinoline-3-carboxamide] | > 100
7 | CC1(C)CCCN(c2ccc(NC(=O)c3c[nH]c4ccccc4c3=O)c(C(F)(F)F)c2)C1 [Compound 612, N-[4-(3,3-dimethyl-1-piperidyl)-2-(trifluoromethyl)phenyl]-4-oxo-1H-quinoline-3-carboxamide] | 25 to 100
8 | Cc1cccc2[nH]cc(C(=O)Nc3ccc(N4CC[C@@H](C)C4)cc3C(F)(F)F)c(=O)c12 [Compound 613, (R)-5-methyl-N-(4-(3-methylpyrrolidin-1-yl)-2-(trifluoromethyl)phenyl)-4-oxo-1,4-dihydroquinoline-3-carboxamide] | 25 to 100
9 | O=C(Nc1ccc(Oc2cccnc2)cc1)c1c[nH]c2ccccc2c1=O [Compound 614, 4-oxo-N-[4-(3-pyridyloxy)phenyl]-1H-quinoline-3-carboxamide] | 25 to 100
10 | Cc1cc(N2CCCC2)ccc1NC(=O)c1c[nH]c2ccccc2c1=O [Compound 615, N-(2-methyl-4-pyrrolidin-1-yl-phenyl)-4-oxo-1H-quinoline-3-carboxamide] | > 100
11 | CCOc1cccc2c(=O)c(C(=O)Nc3cc(O)c(C(C)(C)C)cc3C(C)(C)C)c[nH]c12 [Compound 616, 8-ethoxy-N-(5-hydroxy-2,4-ditert-butyl-phenyl)-4-oxo-1H-quinoline-3-carboxamide] | < 25
12 | COc1cc2[nH]cc(C(=O)Nc3cc(O)c(C(C)(C)C)cc3C(C)(C)C)c(=O)c2cc1F [Compound 617, 6-fluoro-N-(5-hydroxy-2,4-ditert-butyl-phenyl)-7-methoxy-4-oxo-1H-quinoline-3-carboxamide] | > 100
13 | C[C@H]1CCCN1c1ccc(NC(=O)c2c[nH]c3ccccc3c2=O)c(C(F)(F)F)c1 [Compound 618, (S)-N-(4-(2-methylpyrrolidin-1-yl)-2-(trifluoromethyl)phenyl)-4-oxo-1,4-dihydroquinoline-3-carboxamide] | 25 to 100
14 | O=C(Nc1cc(O)c(C2CCCCC2)cc1C(F)(F)F)c1c[nH]c2ccccc2c1=O [Compound 619, N-[4-cyclohexyl-5-hydroxy-2-(trifluoromethyl)phenyl]-4-oxo-1H-quinoline-3-carboxamide] | > 100
15 | Cc1cccc2c(=O)c(C(=O)Nc3cc(O)c(C(C)(C)C)cc3C(C)(C)C)c[nH]c12 [Compound 621, N-(5-hydroxy-2,4-ditert-butyl-phenyl)-8-methyl-4-oxo-1H-quinoline-3-carboxamide] | < 25
16 | N#Cc1cc(N2CCCC2)ccc1NC(=O)c1c[nH]c2ccccc2c1=O [Compound 622, N-(2-cyano-4-pyrrolidin-1-yl-phenyl)-4-oxo-1H-quinoline-3-carboxamide] | 25 to 100

Reference: patent US8802700B2 (Vertex Pharmaceuticals Incorporated, priority 2010, dated 2014)
